Tests used:
[1] = system: VIOTR; assay: Pre-emergence action against VIOTR; format: in vivo, Viola tricolor; conditions: Dosage 320 g/ha, pre-emergence
Method in brief: (§1)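 Seeds sown in sandy loam in wood-fiber pots and covered with soil. Greenhouse growth; visual damage scored after 3 weeks versus untreated controls (100% = dead, 0% = like control).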

[2] = system: STEME; assay: Post-emergence action against STEME; format: in vivo, Stellaria media; conditions: post-emergence, dosage 80 g/ha
Method in brief: (§2)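 Weeds grown in sandy loam in greenhouse, treated at one-leaf stage (2–3 weeks after sowing) with WP or EC formulations sprayed as aqueous suspension/emulsion at 600 to […] water with 0.2% wetting agent. Visual rating after about 3 weeks versus untreated controls, as % herbicidal action (100% = plants dead, 0% = like control).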

[3] = system: ABUTH; assay: Pre-emergence action against ABUTH; format: in vivo, Abutilon theophrasti; conditions: pre-emergence, dosage 320 g/ha, scored visually after 3 weeks vs untreated controls
Method in brief: as §1

[4] = system: PHBPU; assay: Pre-emergence action against PHBPU; format: in vivo, Pharbitis purpurea; conditions: Dosage 320 g/ha, pre-emergence
Method in brief: as §1

[5] = system: POLCO; assay: Post-emergence action against POLCO; format: in vivo, Polygonum convolvulus; conditions: post-emergence, dosage 80 g/ha
Method in brief: as §2

[6] = system: VERPE; assay: Pre-emergence action against VERPE; format: in vivo, Veronica persica; conditions: Dosage 320 g/ha, pre-emergence
Method in brief: as §1

[7] = system: SETVI; assay: Pre-emergence action against SETVI; format: in vivo, Setaria viridis; conditions: pre-emergence, dosage 320 g/ha, scored visually after 3 weeks vs untreated controls
Method in brief: as §1

[8] = system: SETVI; assay: Post-emergence action against SETVI; format: in vivo, Setaria viridis; conditions: post-emergence, dosage 80 g/ha, visual assessment about 3 weeks after treatment vs untreated controls
Method in brief: as §2

[9] = system: MATIN; assay: Pre-emergence action against MATIN; format: in vivo, Matricaria inodora; conditions: Dosage 320 g/ha, pre-emergence
Method in brief: as §1

[10] = system: VERPE; assay: Post-emergence action against VERPE; format: in vivo, Veronica persica; conditions: dosage 80 g/ha
Method in brief: as §2

[11] = system: STEME; assay: Pre-emergence action against STEME; format: in vivo, Stellaria media; conditions: Dosage 320 g/ha, pre-emergence
Method in brief: as §1

[12] = system: VIOTR; assay: Post-emergence action against VIOTR; format: in vivo, Viola tricolor; conditions: post-emergence, dosage 80 g/ha
Method in brief: as §2

[13] = system: POLCO; assay: Pre-emergence action against POLCO; format: in vivo, Polygonum convolvulus; conditions: Dosage 320 g/ha, pre-emergence
Method in brief: as §1

[14] = system: ECHCG; assay: Pre-emergence action against ECHCG; format: in vivo, Echinochloa crus-galli; conditions: pre-emergence, dosage 320 g/ha, scored visually after 3 weeks vs untreated controls
Method in brief: as §1

[15] = system: AMARE; assay: Pre-emergence action against AMARE; format: in vivo, Amaranthus retroflexus; conditions: pre-emergence, dosage 320 g/ha, scored visually after 3 weeks vs untreated controls
Method in brief: as §1

[16] = system: PHBPU; assay: Post-emergence action against PHBPU; format: in vivo, Pharbitis purpurea; conditions: post-emergence, dosage 80 g/ha
Method in brief: as §2

[17] = system: LOLMU; assay: Pre-emergence action against LOLMU; format: in vivo, Lolium multiflorum; conditions: dosage 320 g/ha, scored visually after 3 weeks vs untreated controls
Source text: Seeds of monocotyledonous and dicotyledonous weed plants and crop plants are laid out in sandy loam soil in wood-fiber pots and covered with soil. The compounds of the invention, formulated in the form of wettable powders (WP) or as emulsion concentrates (EC), are then applied to the surface of the covering soil in the form of an aqueous suspension or emulsion at a water application rate equating to […], with addition of 0.2% wetting agent. After the treatment, the pots are placed in a greenhouse and kept under good growth conditions for the trial plants. The damage to the test plants is scored visually after a test period of 3 weeks by comparison with untreated controls (herbicidal activity in percent (%): 100% activity=the plants have died, 0% activity=like control plants).

[18] = system: AMARE; assay: Post-emergence action against AMARE; format: in vivo, Amaranthus retroflexus; conditions: post-emergence, dosage 80 g/ha, visual assessment about 3 weeks after treatment vs untreated controls
Method in brief: as §2

[19] = system: ABUTH; assay: Post-emergence action against ABUTH; format: in vivo, Abutilon theophrasti; conditions: post-emergence, dosage 80 g/ha, visual assessment about 3 weeks after treatment vs untreated controls
Method in brief: as §2

[20] = system: CYPES; assay: Post-emergence action against CYPES; format: in vivo, Cyperus esculentus; conditions: post-emergence, dosage 80 g/ha, visual assessment about 3 weeks after treatment vs untreated controls
Method in brief: as §2

[21] = system: ECHCG; assay: Post-emergence action against ECHCG; format: in vivo, Echinochloa crus-galli; conditions: post-emergence, dosage 80 g/ha, visual assessment about 3 weeks after treatment vs untreated controls
Method in brief: as §2

[22] = system: AVEFA; assay: Pre-emergence action against AVEFA; format: in vivo, Avena fatua; conditions: dosage 320 g/ha, scored visually after 3 weeks vs untreated controls
Method in brief: as §1

[23] = system: ALOMY; assay: Pre-emergence action against ALOMY; format: in vivo, Alopecurus myosuroides; conditions: dosage 320 g/ha, pre-emergence, scored visually after 3 weeks vs untreated controls, 100% = plants have died, 0% = like control plants
Method in brief: as §1

[24] = system: MATIN; assay: Post-emergence action against MATIN; format: in vivo, Matricaria inodora; conditions: post-emergence, dosage 80 g/ha, visual assessment about 3 weeks after treatment vs untreated controls
Method in brief: as §2

[25] = system: CYPES; assay: Pre-emergence action against CYPES; format: in vivo, Cyperus esculentus; conditions: pre-emergence, dosage 320 g/ha, scored visually after 3 weeks vs untreated controls
Method in brief: as §1

## CCn1nnnc1NC(=O)c1ccc(C(F)(F)F)c(C(C)=O)c1SC [2-58]
[1]
  Pre-emergence action against VIOTR: 100%
[2]
  Post-emergence action against STEME: 100
[3]
  Pre-emergence action against ABUTH (herbicidal activity): 100%
[4]
  Pre-emergence action against PHBPU: 80%
[5]
  Post-emergence action against POLCO: 90
[6]
  Pre-emergence action against VERPE: 100%
[7]
  SETVI (Table B8, pre-emergence herbicidal activity): 100%
[8]
  Post-emergence action against SETVI (herbicidal action in percent): 100%
[9]
  Pre-emergence action against MATIN: 100%
[10]
  Post-emergence action against VERPE: 100
[11]
  Pre-emergence action against STEME: 90%
[12]
  Post-emergence action against VIOTR: 100
[13]
  Pre-emergence action against POLCO: 100%
[14]
  Pre-emergence action against ECHCG (herbicidal activity): 100%
[15]
  Pre-emergence action against AMARE (herbicidal activity): 100%
[16]
  Post-emergence action against PHBPU: 100
[17]
  Pre-emergence action against LOLMU (herbicidal activity): 90%
[18]
  Post-emergence action against AMARE (herbicidal action in percent): 100%
[19]
  Post-emergence action against ABUTH (herbicidal action in percent): 100%
[20]
  Post-emergence action against CYPES (herbicidal action in percent): 90%
[21]
  Post-emergence action against ECHCG (herbicidal action in percent): 90%
[22]
  Pre-emergence action against AVEFA (herbicidal activity): 90%
[23]
  Pre-emergence action against ALOMY (herbicidal activity in percent): 100%
[24]
  Post-emergence action against MATIN (herbicidal action in percent): 100%
[25]
  Pre-emergence action against CYPES (herbicidal activity): 100%

## CCn1nnnc1NC(=O)c1ccc(C(F)(F)F)c(C(C)=O)c1Cl [2-137, 3-acetyl-2-chloro-N-(1-ethyl-1H-tetrazol-5-yl)-4-(trifluoromethyl)benzamide]
[1]; Viola tricolor, 504 h
  pest or weed control at 320 g/ha: 100%
[2]; Stellaria media, 504 h
  pest or weed control at 80 g/ha: 100%
[3]; Abutilon theophrasti, 504 h, read-out: Pre-emergence action against ABUTH (herbicidal activity)
  pest or weed control at 320 g/ha: 100%
[5]; Fallopia convolvulus, 504 h
  pest or weed control at 80 g/ha: 90%
[6]; Veronica persica, 504 h
  pest or weed control at 320 g/ha: 90%
[7]; Setaria viridis, 504 h, read-out: SETVI (Table B8, pre-emergence herbicidal activity)
  pest or weed control at 320 g/ha: 100%
[8]; Setaria viridis, 504 h, read-out: Post-emergence action against SETVI (herbicidal action in percent)
  pest or weed control at 80 g/ha: 100%
[9]; Tripleurospermum inodorum, 504 h
  pest or weed control at 320 g/ha: 100%
[10]; Veronica persica, 504 h
  pest or weed control at 80 g/ha: 90%
[11]; Stellaria media, 504 h
  pest or weed control at 320 g/ha: 90%
[12]; Viola tricolor, 504 h
  pest or weed control at 80 g/ha: 100%
[13]; Fallopia convolvulus, 504 h
  pest or weed control at 320 g/ha: 90%
[14]; Echinochloa crus-galli, 504 h, read-out: Pre-emergence action against ECHCG (herbicidal activity)
  pest or weed control at 320 g/ha: 100%
[15]; Amaranthus retroflexus, 504 h, read-out: Pre-emergence action against AMARE (herbicidal activity)
  pest or weed control at 320 g/ha: 100%
[16]; Ipomoea purpurea, 504 h
  pest or weed control at 80 g/ha: 90%
[17]; Lolium multiflorum, 504 h, read-out: Pre-emergence action against LOLMU (herbicidal activity)
  pest or weed control at 320 g/ha: 80%
[18]; Amaranthus retroflexus, 504 h, read-out: Post-emergence action against AMARE (herbicidal action in percent)
  pest or weed control at 80 g/ha: 100%
[19]; Abutilon theophrasti, 504 h, read-out: Post-emergence action against ABUTH (herbicidal action in percent)
  pest or weed control at 80 g/ha: 90%
[20]; Cyperus esculentus, 504 h, read-out: Post-emergence action against CYPES (herbicidal action in percent)
  pest or weed control at 80 g/ha: 90%
[21]; Echinochloa crus-galli, 504 h, read-out: Post-emergence action against ECHCG (herbicidal action in percent)
  pest or weed control at 80 g/ha: 90%
[22]; Avena fatua, 504 h, read-out: Pre-emergence action against AVEFA (herbicidal activity)
  pest or weed control at 320 g/ha: 90%
[23]; Alopecurus myosuroides, 504 h, read-out: Pre-emergence action against ALOMY (herbicidal activity in percent)
  pest or weed control at 320 g/ha: 90%
[24]; Tripleurospermum inodorum, 504 h, read-out: Post-emergence action against MATIN (herbicidal action in percent)
  pest or weed control at 80 g/ha: 100%
[25]; Cyperus esculentus, 504 h, read-out: Pre-emergence action against CYPES (herbicidal activity)
  pest or weed control at 320 g/ha: 100%

From patent publication US11051515B2, “3-acyl-benzamides and their use as herbicides” (Bayer Aktiengesellschaft, priority 2017, dated 2021)
